We go through three compounds from patent US20150231236A1, “METHODS FOR TREATING PATIENTS WITH HYPERCHOLESTEROLEMIA THAT IS NOT ADEQUATELY CONTROLLED BY MODERATE-DOSE STATIN THERAPY” (Regeneron Pharmaceuticals, Inc., priority 2014, published 2015).

This test relates to patients with hypercholesterolemia at high CV risk not adequately controlled with atorvastatin (20 mg or 40 mg). As to the kind of experiment: Example 2: randomized, double-blind trial, lipid efficacy of mAb316P add-on to atorvastatin vs EZE add-on, atorvastatin dose doubling or switch to rosuvastatin. It is filed as in vivo, human. Conditions: for LDL-C W24 % change from baseline, LS mean (SE): ITT population, treatment arm as labelled; for LDL-C W24 % change from baseline, LS mean (SE) / reduced LDL-C levels by / Proportion of Patients Reaching LDL-C goal (%): week 24; for reduced LDL-C levels by: add-on mAb316P; for Proportion of Patients Reaching LDL-C goal (%): calculated LDL-C <70 mg/dL very high risk or <100 mg/dL high risk, combined estimate. The method, then:
The present study was a randomized, double-blind, active-comparator, parallel-group study in patients at high CV risk with non-FH or heFH who are not adequately controlled with atorvastatin (20 mg or 40 mg) with or without other lipid-modifying therapy (LMT) (excluding EZE). The study design is illustrated in FIG. 1. Patients who entered the study were taking either atorvastatin 20 mg or atorvastatin 40 mg. The former patients were randomized to 1 of 3 treatment arms (arms 1 to 3); the latter patients were randomized to 1 of 4 treatment arms (arms 4 to 7). The treatment arms are as follows:
(1) mAb316P+atorvastatin 20 mg+placebo-EZE; (2) Placebo-mAb316P+atorvastatin 40 mg+placebo-EZE; and (3) Placebo-mAb316P+atorvastatin 20 mg+EZE 10 mg.
(4) mAb316P+atorvastatin 40 mg+placebo-EZE; (5) Placebo-mAb316P+atorvastatin 80 mg+placebo-EZE; (6). Placebo-mAb316P+rosuvastatin 40 mg+placebo-EZE; and (7) Placebo-mAb316P+atorvastatin 40 mg+EZE 10 mg.
(B) a double-blind treatment period of 24 weeks. Each patient received a SC injection Q2W (mAb316P or placebo-mAb316P) and was administered (or instructed to take) 2 oral blinded medications daily (a statin [atorvastatin or rosuvastatin] and EZE or placebo-EZE). The first injection of mAb316P or placebo-mAb316P was administered at the clinical site on day 1, after study assessments were completed, and as soon as possible after the patient was randomized into the study. The patient/caregiver administered subsequent injections outside of the clinic according to the dosing schedule. On days where the clinic study visit coincided with dosing, the dose of study drugs (injectable and oral) were administered after all study assessments had been performed and all laboratory samples collected. The last dose of mAb316P or placebo-mAb316P was administered at week 22. The last dose of daily oral study drugs was administered at week 24. At week 12, based on their baseline CV risk, certain patients randomized to mAb316P in a blinded manner, had their dose increased as follows:
Each patient received a subcutaneous (SC) injection once every two weeks (Q2W) (mAb316P or placebo-mAb316P) and took 2 oral blinded medications daily (a statin [atorvastatin or rosuvastatin] and EZE or placebo-EZE).
The injectable study treatment was a single SC injection of 1 mL for a 75 mg or 150 mg dose of mAb316P or placebo-mAb316P provided in an auto-injector, administered in the abdomen, thigh, or outer area of the upper arm. The first injection of study drug was administered at the clinical site, as soon as possible after the patient was randomized into the study. The patient was monitored at the clinical site for at least 30 minutes following the first injection. The patient/caregiver administered subsequent injections outside of the clinic, according to the dosing schedule. On days where the clinic study visit coincided with dosing, the dose of study drug was administered after all study assessments have been performed and all laboratory samples collected.
The dose of mAb316P was increased, in a blinded manner, from 75 mg to 150 mg SC Q2W, starting at week 12, based on baseline CV risk in the following circumstances:
The primary efficacy endpoint was the percent change in calculated LDL-C from baseline to week 24, which is defined as: 100× (calculated LDL-C value at week 24−calculated LDL-C value at baseline)/calculated LDL-C value at baseline. The baseline calculated LDL-C value was the last LDL-C level obtained before the first double-blind study drug injection. The calculated LDL-C at week 24 will be the LDL-C level obtained within the week 24 analysis window and during the main efficacy period. The main efficacy period was defined as the time from the first double-blind study drug injection up to 21 days after the last double-blind study drug injection or up to the upper limit of the week 24 analysis window, whichever comes first.
Total-C, HDL-C, TG, ApoB, ApoA-1, and Lp (a) were directly measured by a central laboratory. […]

Regarding `CC(C)c1c(C(=O)Nc2ccccc2)c(-c2ccccc2)c(-c2ccc(F)cc2)n1CC[C@@H](O)C[C@@H](O)CC(=O)O` [atorvastatin, reference compound], the “LDL-C W24 % change from baseline, LS mean (SE)” value (“LDL-C W24 % change … (SE)” below) (listed as ATV 40) is on record as −5.0% and the “LDL-C W24 % change … (SE)” value (listed as ATV 80) is −4.8%. Also, the “Calculated LDL-C LS mean (SE), % Change from Baseline” value is recorded as −9.9 (3.4) % (Week 4, listed as ATV 40); −11.7 (2.7) % (Week 4, listed as ATV 80); −12.6 (3.8) % (Week 8, listed as ATV 40); −13.1 (3.1) % (Week 8, listed as ATV 80); −8.5 (3.9) % (Week 12, listed as ATV 40); −14.5 (3.2) % (Week 12, listed as ATV 80). The “Calculated LDL-C LS mean (SE), % Change from Baseline” value (Week 16, listed as ATV 40) is listed as −8.2 (3.9) %; the “Calculated LDL-C LS mean (SE), % Change from Baseline” value (Week 16, listed as ATV 80) was −8.0 (3.4) %; the “Calculated LDL-C LS mean (SE), % Change from Baseline” value (Week 24, listed as ATV 40) is −5.0 (4.6) %; the “Calculated LDL-C LS mean (SE), % Change from Baseline” value (Week 24, listed as ATV 80) is recorded as −4.8 (4.2) %. In addition, the “Calculated LDL-C LS mean (SE), Change from Baseline” value by setting is: (Week 4, listed as ATV 40) −12.9 (3.6); (Week 4, listed as ATV 80) −15.3 (2.9); (Week 8, listed as ATV 40) −15.1 (4.1); (Week 8, listed as ATV 80) −17.2 (3.2); (Week 12, listed as ATV 40) −11.9 (4.3); (Week 12, listed as ATV 80) −17.9 (3.4). Also, the “Calculated LDL-C LS mean (SE), Change from Baseline” value is −10.9 (4.3) (Week 16, listed as ATV 40); −11.3 (3.8) (Week 16, listed as ATV 80); −7.9 (4.7) (Week 24, listed as ATV 40); −8.7 (4.5) (Week 24, listed as ATV 80). In addition, the “Calculated LDL-C LS mean (SE), Value (mg/dL)” value (Week 4, listed as ATV 40) was 88.9 (3.6) mg/dL; the “Calculated LDL-C LS mean (SE), Value (mg/dL)” value (Week 4, listed as ATV 80) is 93.4 (2.9) mg/dL; the “Calculated LDL-C LS mean (SE), Value (mg/dL)” value (Week 8, listed as ATV 40) is 86.7 (4.1) mg/dL; the “Calculated LDL-C LS mean (SE), Value (mg/dL)” value (Week 8, listed as ATV 80) is 91.5 (3.2) mg/dL; the “Calculated LDL-C LS mean (SE), Value (mg/dL)” value (Week 12, listed as ATV 40) was 89.9 (4.3) mg/dL; the “Calculated LDL-C LS mean (SE), Value (mg/dL)” value (Week 12, listed as ATV 80) is on record as 90.8 (3.4) mg/dL. The “Calculated LDL-C LS mean (SE), Value (mg/dL)” value (Week 16, listed as ATV 40) is 90.9 (4.3) mg/dL; the “Calculated LDL-C LS mean (SE), Value (mg/dL)” value (Week 16, listed as ATV 80) is 97.4 (3.8) mg/dL; the “Calculated LDL-C LS mean (SE), Value (mg/dL)” value (Week 24, listed as ATV 40) is recorded as 93.9 (4.7) mg/dL; the “Calculated LDL-C LS mean (SE), Value (mg/dL)” value (Week 24, listed as ATV 80) is 100.0 (4.5) mg/dL. Besides, the “reduced LDL-C levels by” value (atorvastatin 20 mg regimen, add-on ezetimibe or doubling of atorvastatin dose) is given as 5.0% and the “reduced LDL-C levels by” value (atorvastatin 40 mg regimen, add-on ezetimibe, doubling of atorvastatin dose or switch to rosuvastatin 40 mg) is listed as 4.8%. Further, the “Proportion of Patients Reaching LDL-C goal (%)” value (“Proportion … (%)” for short) by setting is: (listed as ATV 40) 34.5%; (listed as ATV 80) 15.4%.

As for “mAb316P + ATV 20: treatment arm: mAb316P 75/150 mg Q2W + atorvastatin 20 mg daily”, the “LDL-C W24 % change … (SE)” value is on record as −44.1% and the “Proportion … (%)” value is listed as 87.2%. In addition, where the note is “Week 4”, the “Calculated LDL-C LS mean (SE), % Change from Baseline” value is listed as −53.3 (3.4) %; the “Calculated LDL-C LS mean (SE), Change from Baseline” value is on record as −55.8 (3.5); the “Calculated LDL-C LS mean (SE), Value (mg/dL)” value is on record as 46.0 (3.5) mg/dL. Also, under “Week 8”, the “Calculated LDL-C LS mean (SE), % Change from Baseline” value is −51.2 (3.8) %; the “Calculated LDL-C LS mean (SE), Change from Baseline” value is given as −51.4 (4.1); the “Calculated LDL-C LS mean (SE), Value (mg/dL)” value is reported as 50.4 (4.1) mg/dL. In addition, where the note is “Week 12”, the “Calculated LDL-C LS mean (SE), % Change from Baseline” value was −48.4 (3.8) %; the “Calculated LDL-C LS mean (SE), Change from Baseline” value was −49.0 (4.2); the “Calculated LDL-C LS mean (SE), Value (mg/dL)” value is 52.8 (4.2) mg/dL. Further, where the note is “Week 16”, the “Calculated LDL-C LS mean (SE), % Change from Baseline” value is −53.8 (3.9) %; the “Calculated LDL-C LS mean (SE), Change from Baseline” value is on record as −54.8 (4.3); the “Calculated LDL-C LS mean (SE), Value (mg/dL)” value was 47.0 (4.3) mg/dL. Moreover, under “Week 24”, the “Calculated LDL-C LS mean (SE), % Change from Baseline” value is recorded as −44.1 (4.5) %; the “Calculated LDL-C LS mean (SE), Change from Baseline” value is given as −47.5 (4.7); the “Calculated LDL-C LS mean (SE), Value (mg/dL)” value was 54.3 (4.7) mg/dL.

In the case of “mAb316P + ATV 40: treatment arm: mAb316P 75/150 mg Q2W + atorvastatin 40 mg daily”, the “LDL-C W24 % change … (SE)” value is on record as −54.0% and the “Proportion … (%)” value is listed as 82.4%. Where the note is “Week 4”, the “Calculated LDL-C LS mean (SE), % Change from Baseline” value is −56.5 (2.8) %; the “Calculated LDL-C LS mean (SE), Change from Baseline” value is recorded as −63.2 (2.9); the “Calculated LDL-C LS mean (SE), Value (mg/dL)” value was 45.5 (2.9) mg/dL. Further, under “Week 8”, the “Calculated LDL-C LS mean (SE), % Change from Baseline” value is listed as −55.7 (3.2) %; the “Calculated LDL-C LS mean (SE), Change from Baseline” value is given as −63.4 (3.3); the “Calculated LDL-C LS mean (SE), Value (mg/dL)” value is listed as 45.3 (3.3) mg/dL. Under “Week 12”, the “Calculated LDL-C LS mean (SE), % Change from Baseline” value is given as −50.5 (3.2) %; the “Calculated LDL-C LS mean (SE), Change from Baseline” value is recorded as −56.9 (3.5); the “Calculated LDL-C LS mean (SE), Value (mg/dL)” value was 51.8 (3.5) mg/dL. Where the note is “Week 16”, the “Calculated LDL-C LS mean (SE), % Change from Baseline” value is on record as −56.9 (3.5) %; the “Calculated LDL-C LS mean (SE), Change from Baseline” value is on record as −64.3 (3.9); the “Calculated LDL-C LS mean (SE), Value (mg/dL)” value is 44.4 (3.9) mg/dL. For the setting “Week 24”, the “Calculated LDL-C LS mean (SE), % Change from Baseline” value was −54.0 (4.3) %; the “Calculated LDL-C LS mean (SE), Change from Baseline” value is −62.3 (4.6); the “Calculated LDL-C LS mean (SE), Value (mg/dL)” value is 46.4 (4.6) mg/dL.
